# Patent US20240226332A9, “GENE THERAPY FOR TREM2-ASSOCIATED DISEASES AND DISORDERS” (Eli Lilly and Company, priority 2022, published 2024)
# Experiments:
# iPSC-derived microglia = experiment: Pharmacological CSF1R-inhibition (PLX3397) cell viability assay in human iPSC-derived microglia; format: cell-based; settings: 150 nM or 200 nM PLX3397 in 0.1% DMSO, 8 hr, colorimetric viability kit
# Procedure: Methods: The iPSC-derived microglia as described in Example 4 either were treated with excipient (negative control) or were transduced with a rAAV vector having a TREM2 transgene (SEQ ID NO:26) encapsidated in AAV6TM capsid protein (SEQ ID NO:19) at a MOI of 2.0×10^3 vg/cell. 7 days post-transduction, 150 nM or 200 nM of PLX3397 in 0.1% DMSO was added to the cell culture media and incubated for additional 8 hr at 37° C. and 5% CO2. After this period of incubation, cells were assayed for viability using a colorimetric kit (Abcam).
# [1] = test system: CSF1R-inhibition mouse model (WT C57BL/6 mice fed PLX-chow); experiment: In vivo efficacy of TREM2 rAAV in CSF1R-inhibition (PLX) mouse model for CRL
# Procedure: The rAAV was injected at a dose of either 1.8×10^10 vg (4.49×10^10 vg/g brain) or 1.8×10^11 vg (4.49×10^11 vg/g brain), respectively. Vector particles per g brain weight was based on an adult mouse brain weight of 400 mg. At 8 weeks of age (i.e., 4 weeks post-ICV injection), 1 excipient-treated group and both dose-treated groups were fed with PLX-containing mouse chow. Mice were fed with PLX-chow at 185 mg/kg for 1 week and then sacrificed at 9 weeks of age (i.e., 5 weeks post-ICV injection).
# Biodistribution was determined by measuring vg presence using ddPCR (with >50 vg/1 μg gDNA defined as positive).
structure (smiles),measurement,setting,value
FC(F)(F)c1ccc(CNc2ccc(Cc3c[nH]c4ncc(Cl)cc34)cn2)cn1 [PLX],cell death (cytotoxicity of PLX treatment),iPSC-derived microglia,about 80%
same,number of IBA1+ microglia in brain,"[1]; PLX-chow 185 mg/kg for 1 week, either dose of rAAV+PLX compared to excipient+PLX",almost complete depletion of microglia throughout the brain
same,"expression of homeostatic microglia genes (P2RY12, HEXB)","[1]; PLX-chow 185 mg/kg for 1 week, rAAV+PLX",decreased expression of genes associated with homeostatic microglia
same,CSF1R expression (mRNA; protein),"[1]; PLX-chow 185 mg/kg for 1 week, rAAV+PLX (both doses) compared to excipient+PLX",apparent at both the mRNA and protein level
same,"expression of disease associated microglia (DAM) genes (CCL12, CD48, CD68, LYZ1, PTPRC)","[1]; excipient+PLX, rAAV+PLX compared to excipient-only",significant decrease in expression
